Experimental data: patent US5296479A, “Treatment of psychosis using 1-cycloalkylpiperidines” (priority 1992, dated 1994)
Structures can show the parent of a compound that is named as a salt.

What was measured:
catalepsy = assay: Induction of catalepsy; format: in vivo, Male CD rats; conditions: rats, oral; Table III discussion
Procedure: Male CD rats (Charles River) weighing 250-300 g were treated with test drugs and standards by the oral route and tested for the presence of catalepsy 30 minute, 60 minute, and 90 minute after treatment. To test for catalepsy, each rat is placed with its front paws over a 10 cm high horizontal bar. The intensity of catalepsy is measured by the length of time it takes the animal to move both forelegs to the table. A time of 20 seconds is considered maximal catalepsy.

[1] = test system: PCP-induced turning behavior; assay: PCP-induced turning behavior in rats; format: in vivo, Male Sprague-Dawley rats; conditions: p.o., Table III discussion
Procedure: Male Sprague-Dawley rats (CD/CR, Charles River), weighing 190-290 g, were used for surgery. In order to spare […] neurons, rats were injected with 25 mg/kg imipramine i.p. 30 minutes before surgery. The rats were anesthetized with a 1:1.2 ratio mixture of Xylazine:Ketamine given 0.1 mL/100 g body weight i.m. A Ringers-Wydaze (100:0.01) solution was given to prevent dehydration. Dopamine was depleted in the right striatum by injecting the neurotoxin 6-hydroxydopamine (6-OHDA) into the substantia nigra of the right cerebral hemisphere. Five mg of 6-OHDA was dissolved in 5 mL of a 0.04% ascorbic acid solution which had been deoxygenated with nitrogen. Five μL of the 6-OHDA solution was injected into the substantia nigra through a 26 gauge needle over a five minute period. […]
Rotation rate and direction were determined with Coulbourn Instruments Rotometry Monitors. Clockwise and counter clockwise rotations were recorded at 30 and 60 minute intervals. […]
The data were analyzed with an analysis of variance statistical test and individual comparisons of each dose of test drug to control were made with Dunnett's multiple range test. The ED50 was calculated with a Litchfield and Wilcoxon test using percent of control values.

[2] = test system: isolation-induced aggressive behavior; assay: Isolation-Induced Aggression in Mice; format: in vivo, Male Balb/c mice; conditions: oral, Table II discussion
Procedure: Male Balb/c mice (Charles River) were used. […] Isolated mice failing to consistently attack an intruder were eliminated from the colony. Drug testing was carried out by treating the isolated mice with test drugs or standards. Fifteen minutes after dosing with test drugs by the oral route, one isolated mouse was removed from its home cage and placed in the home cage of another isolate. Scoring was a yes or no response for each pair. A maximum of 3 minutes was allowed for an attack and the pair was separated immediately upon an attack. Selection of home cage and intruder mice was randomized for each test. Mice were treated and tested twice a week with at least a 2 day washout period between treatments.

SMILES	producing catalepsy, in words (catalepsy)	inhibiting PCP-induced turning behavior, in words [1]	inhibiting the isolation-induced aggressive behavior, in words [2]
O=C(CC1CCN(CC2CC2)CC1)c1ccc(F)cc1 [Example 504, 1-(Cyclopropylmethyl)-4-2'-(4"-Fluorophenyl)-2-oxoethyl)-piperidine, hydrobromide salt]	does not produce catalepsy	potent activity	
O=C(CCCN1CCC(O)(c2ccc(Cl)cc2)CC1)c1ccc(F)cc1 [Haloperidol]	very potent in producing catalepsy	potent activity	potent activities
Fc1ccc(OCC2CCN(CC3CC3)CC2)cc1 [Example 1, 1-(Cyclopropylmethyl)-4-(4-fluorophenoxymethyl)piperidine]			potent activities
